Experiment [1] has as its target Genome polyprotein (dengue virus type 2, UniProt P29990). The experiment in a line: Dengue-2 NS5 methyltransferase inhibitors, primary screen, biochemical, confirmation dose response (AID 588689). It is filed as functional.
The target of experiment [2] is T1, Streptokinase A (Streptococcus pyogenes serotype M1, UniProt P10520).
T1 sequence (P10520 whole entry): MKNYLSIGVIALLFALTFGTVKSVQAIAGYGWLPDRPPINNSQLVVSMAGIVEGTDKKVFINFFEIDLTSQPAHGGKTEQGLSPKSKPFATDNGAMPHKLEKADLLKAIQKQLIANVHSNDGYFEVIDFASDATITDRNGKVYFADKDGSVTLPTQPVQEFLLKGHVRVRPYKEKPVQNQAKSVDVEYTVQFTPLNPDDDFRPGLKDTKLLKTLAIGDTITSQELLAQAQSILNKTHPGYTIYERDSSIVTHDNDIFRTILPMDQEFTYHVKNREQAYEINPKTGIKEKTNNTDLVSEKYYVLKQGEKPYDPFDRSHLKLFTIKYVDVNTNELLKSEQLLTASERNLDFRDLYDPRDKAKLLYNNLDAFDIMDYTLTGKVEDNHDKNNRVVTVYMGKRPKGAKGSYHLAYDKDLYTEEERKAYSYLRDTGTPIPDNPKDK
The experiment in a line: S. pyogenes streptokinase expression inhibitors, potency, dose response, plasminogen activation absorbance, OD405 (AID 1914).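 Also: secreted streptokinase activity via plasminogen activation per viability signal from cell pellet.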 It is filed as functional, Streptococcus pyogenes M1 GAS.

The target of experiment [3] is SUMO-activating enzyme (Homo sapiens, UniProt Q9UBT2). The experiment in a line: inhibitors of in vitro SUMOylation cascade, primary screen, biochemical, HTRF, uHTS (AID 2006). It is filed as protein-complex assay. On the technique in general: Time-resolved FRET reads energy transfer from a long-lived donor to a nearby acceptor.
Experiment [4] is described as follows: inhibitors of intracellular T. cruzi replication, confirmation, NIH3T3 host cells, beta-gal luminescence (AID 2044).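 Also: intracellular parasites grown in NIH/3T3 mouse fibroblasts as host cells; luminescent beta-galactosidase reporter signal from transgenic T. cruzi replicating inside host cells; inhibitors lower the luminescence signal.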 It is filed as functional, cell-based.
Experiment [5] deals with Intestinal-type alkaline phosphatase (Mus musculus, UniProt P24822). The experiment in a line: PubChem AID 488874. Type of experiment: functional.
A short description of experiment [6]: Luminescence Cell-Based Dose Retest to Confirm Inhibitors of Cancer Stem Cells. [Related pubchem assays (depositor defined):AID2717, AID2721]. It is filed as functional, Homo sapiens. To be noted: Homo sapiens.
Experiment [7] can be described thus: Counterscreen for AddAB inhibitors: absorbance-based bacterial cell-based high throughput dose response assay for inhibitors of bacterial viability. [Related pubchem assays (depositor defined):AID435030, AID449728, AID449731, AID488942, AID488955, AID488956]. It is filed as functional.
Experiment [8] addresses T2, Alkaline phosphatase, tissue-nonspecific isozyme (Homo sapiens, UniProt P05186).
T2 sequence (P05186 whole entry): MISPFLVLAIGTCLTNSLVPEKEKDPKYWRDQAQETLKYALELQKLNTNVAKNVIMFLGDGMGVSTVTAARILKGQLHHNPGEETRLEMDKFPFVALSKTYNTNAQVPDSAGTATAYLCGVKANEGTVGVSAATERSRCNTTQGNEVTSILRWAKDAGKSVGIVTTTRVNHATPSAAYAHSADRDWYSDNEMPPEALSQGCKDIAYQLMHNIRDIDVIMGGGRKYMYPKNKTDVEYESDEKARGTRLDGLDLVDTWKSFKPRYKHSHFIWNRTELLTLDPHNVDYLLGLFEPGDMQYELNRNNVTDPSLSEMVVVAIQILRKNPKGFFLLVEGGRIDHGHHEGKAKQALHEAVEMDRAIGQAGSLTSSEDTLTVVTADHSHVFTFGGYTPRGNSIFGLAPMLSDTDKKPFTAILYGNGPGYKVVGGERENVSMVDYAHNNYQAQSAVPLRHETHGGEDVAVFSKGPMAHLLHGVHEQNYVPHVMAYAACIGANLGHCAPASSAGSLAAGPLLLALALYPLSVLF
The experiment in a line: inhibition of tissue-nonspecific alkaline phosphatase – biochemical, dose response (AID 488882). It is filed as functional.

In experiment [9] the target is Heat shock protein HSP 90-alpha (Homo sapiens, UniProt P07900). Type of experiment: functional, organism-based.
Experiment [10] deals with Glyceraldehyde-3-phosphate dehydrogenase (Homo sapiens, UniProt P04406).
Experiment [11] deals with Heat shock cognate 71 kDa protein (Homo sapiens, UniProt P11142). The experiment in a line: In Vitro Hsc70 Dose Response Fluorescence Polarization Assay. [Related pubchem assays: 1072 ]. For orientation: Polarisation of emitted light reports the rotation of a fluorescent probe.
For experiment [12], the target named is Heat shock 70 kDa protein 1A (Homo sapiens, UniProt P0DMV8). The experiment in a line: Hsp70 inhibitors, SAR follow-up, biochemical, fluorescence polarization (AID 1072).
The target of experiment [13] is Glutathione-S-transferase (Schistosoma japonicum, UniProt Q26513). The experiment in a line: biotin-GST/anti-GST TR-FRET signal inhibitors, dose response, artefact control for Vif-APOBEC3G degradation inhibitor project, biochemical (AID 1117362). It is filed as functional.
Experiment [14] addresses Tyrosine-protein kinase JAK2 (Homo sapiens, UniProt O60674). It is filed as functional.
Experiment [15] deals with Eukaryotic elongation factor 2 kinase (Homo sapiens, UniProt O00418). Type of experiment: functional.
Experiment [16] has as its target Tyrosine-protein kinase receptor TYRO3 (Homo sapiens, UniProt Q06418). Type of experiment: functional.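 Also: TYRO3 value obtained as one member of a kinome-wide profiling panel.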
Experiment [17] concerns the target Casein kinase I isoform alpha (Homo sapiens, UniProt P48729). It is filed as functional.
Experiment [18] addresses Tyrosine-protein kinase Lyn (Homo sapiens, UniProt P07948). It is filed as functional.
Experiment [19] concerns the target Serine/threonine-protein kinase N2 (Homo sapiens, UniProt Q16513). Type of experiment: functional.
The target in experiment [20] is Dual specificity tyrosine-phosphorylation-regulated kinase 3 (Homo sapiens, UniProt O43781). Type of experiment: functional.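 Also: measured as one member of a broad kinase panel.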
The target of experiment [21] is Ephrin type-A receptor 2 (Homo sapiens, UniProt P29317). It is filed as functional.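 Also: EPHA2 tested as one member of a kinome-wide kinase panel.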
The target in experiment [22] is cAMP-dependent protein kinase catalytic subunit PRKX (Homo sapiens, UniProt P51817). Type of experiment: functional.
Experiment [23] concerns the target Aurora kinase B (Homo sapiens, UniProt Q96GD4). Type of experiment: functional.
In experiment [24] the target is Serine/threonine-protein kinase DCLK1 (Homo sapiens, UniProt O15075). It is filed as functional.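 Also: affinity for DCLK1 (listed as DCAMKL1) measured as one member of a kinome-wide kinase profiling panel.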
In experiment [25] the target is Serine/threonine-protein kinase Nek2 (Homo sapiens, UniProt P51955). Type of experiment: functional.
Experiment [26] has as its target Serine/threonine-protein kinase PLK1 (Homo sapiens, UniProt P53350). It is filed as functional.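 Also: PLK1 measured as one member of a kinome-wide profiling panel.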
Experiment [27] concerns the target Cyclin-dependent kinase 9 (Homo sapiens, UniProt P50750). Type of experiment: functional.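 Also: value from the CDK9 entry of a kinome-spanning kinase panel.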
Experiment [28] addresses Lymphokine-activated killer T-cell-originated protein kinase (Homo sapiens, UniProt Q96KB5). It is filed as functional.

Active and inactive are the calls of the source.

The text below walks through data of ChEMBL document CHEMBL1201862, “PubChem BioAssay data set” (2004).

In general, IC50 refers to the concentration needed to halve the response being measured. What is called EC50 is the midpoint of the concentration-response curve. What is called AC50 is the concentration giving half of the maximal activity seen. In general, Ki refers to a dissociation constant, usually derived from enzyme kinetics or from competition with a known ligand. The term pKi denotes −log10 of the Ki, conventionally taken in molar units. Low readings indicate a high Ki, high ones a low Ki.

Chain of Cyclin-dependent kinase 9 (P50750 whole entry): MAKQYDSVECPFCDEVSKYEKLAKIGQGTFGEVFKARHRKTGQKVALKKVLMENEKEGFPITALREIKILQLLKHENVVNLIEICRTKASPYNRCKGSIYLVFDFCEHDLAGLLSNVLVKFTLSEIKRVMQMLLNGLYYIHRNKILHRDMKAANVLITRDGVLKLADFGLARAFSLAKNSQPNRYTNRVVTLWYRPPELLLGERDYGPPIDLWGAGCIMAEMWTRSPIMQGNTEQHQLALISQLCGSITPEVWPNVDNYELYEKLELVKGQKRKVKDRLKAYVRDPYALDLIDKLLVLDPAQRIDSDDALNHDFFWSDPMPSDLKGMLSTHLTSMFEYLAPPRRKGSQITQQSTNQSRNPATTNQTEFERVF
Chain of Glyceraldehyde-3-phosphate dehydrogenase (P04406 whole entry): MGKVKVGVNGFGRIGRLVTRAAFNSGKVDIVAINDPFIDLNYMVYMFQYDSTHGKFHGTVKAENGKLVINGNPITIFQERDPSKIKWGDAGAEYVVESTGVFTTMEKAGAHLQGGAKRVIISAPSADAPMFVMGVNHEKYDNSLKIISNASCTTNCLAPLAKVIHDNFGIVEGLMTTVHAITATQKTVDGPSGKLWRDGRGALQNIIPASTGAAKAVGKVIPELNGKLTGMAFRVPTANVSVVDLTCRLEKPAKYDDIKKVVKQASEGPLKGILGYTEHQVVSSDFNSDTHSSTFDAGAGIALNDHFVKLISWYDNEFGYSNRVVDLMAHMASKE
Chain of Tyrosine-protein kinase JAK2 (O60674 whole entry): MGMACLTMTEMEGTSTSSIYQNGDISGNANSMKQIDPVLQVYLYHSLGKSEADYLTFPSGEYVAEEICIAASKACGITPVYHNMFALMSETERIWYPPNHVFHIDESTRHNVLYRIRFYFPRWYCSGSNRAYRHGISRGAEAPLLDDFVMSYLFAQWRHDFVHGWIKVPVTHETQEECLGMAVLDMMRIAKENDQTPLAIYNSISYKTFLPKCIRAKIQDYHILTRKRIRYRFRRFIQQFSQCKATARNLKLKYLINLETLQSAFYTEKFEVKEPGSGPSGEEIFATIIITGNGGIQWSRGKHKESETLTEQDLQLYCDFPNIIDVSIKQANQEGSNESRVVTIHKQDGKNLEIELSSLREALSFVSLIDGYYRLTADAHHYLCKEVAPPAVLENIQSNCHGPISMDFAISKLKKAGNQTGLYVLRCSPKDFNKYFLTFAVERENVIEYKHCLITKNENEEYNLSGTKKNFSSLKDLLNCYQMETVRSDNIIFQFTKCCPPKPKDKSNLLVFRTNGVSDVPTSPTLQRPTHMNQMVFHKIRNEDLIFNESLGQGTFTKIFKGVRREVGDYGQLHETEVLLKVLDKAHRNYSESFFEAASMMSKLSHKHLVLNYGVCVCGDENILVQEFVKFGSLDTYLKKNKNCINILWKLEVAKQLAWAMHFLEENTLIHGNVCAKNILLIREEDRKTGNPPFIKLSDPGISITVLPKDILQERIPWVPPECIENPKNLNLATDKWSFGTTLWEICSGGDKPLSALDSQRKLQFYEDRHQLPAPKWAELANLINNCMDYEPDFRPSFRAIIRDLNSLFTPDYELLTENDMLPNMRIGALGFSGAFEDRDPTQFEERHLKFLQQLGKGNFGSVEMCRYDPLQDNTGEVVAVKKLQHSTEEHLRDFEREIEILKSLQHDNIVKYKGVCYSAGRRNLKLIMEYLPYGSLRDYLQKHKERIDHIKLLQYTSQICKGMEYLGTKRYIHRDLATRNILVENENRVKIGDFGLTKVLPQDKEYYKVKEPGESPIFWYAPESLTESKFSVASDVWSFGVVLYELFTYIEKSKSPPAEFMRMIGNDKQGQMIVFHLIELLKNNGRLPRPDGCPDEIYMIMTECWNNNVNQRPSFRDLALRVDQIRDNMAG
Chain of SUMO-activating enzyme (Q9UBE0 whole entry): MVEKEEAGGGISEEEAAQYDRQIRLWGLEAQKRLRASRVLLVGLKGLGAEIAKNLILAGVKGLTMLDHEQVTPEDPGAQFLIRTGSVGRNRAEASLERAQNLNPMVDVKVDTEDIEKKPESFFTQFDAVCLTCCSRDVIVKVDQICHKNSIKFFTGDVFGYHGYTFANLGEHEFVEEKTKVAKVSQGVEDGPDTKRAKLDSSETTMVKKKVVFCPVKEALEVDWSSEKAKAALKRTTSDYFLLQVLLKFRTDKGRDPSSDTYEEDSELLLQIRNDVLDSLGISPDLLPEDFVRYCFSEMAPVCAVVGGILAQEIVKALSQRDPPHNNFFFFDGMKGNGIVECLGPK
Chain of SUMO-activating enzyme (Q9UBT2 whole entry): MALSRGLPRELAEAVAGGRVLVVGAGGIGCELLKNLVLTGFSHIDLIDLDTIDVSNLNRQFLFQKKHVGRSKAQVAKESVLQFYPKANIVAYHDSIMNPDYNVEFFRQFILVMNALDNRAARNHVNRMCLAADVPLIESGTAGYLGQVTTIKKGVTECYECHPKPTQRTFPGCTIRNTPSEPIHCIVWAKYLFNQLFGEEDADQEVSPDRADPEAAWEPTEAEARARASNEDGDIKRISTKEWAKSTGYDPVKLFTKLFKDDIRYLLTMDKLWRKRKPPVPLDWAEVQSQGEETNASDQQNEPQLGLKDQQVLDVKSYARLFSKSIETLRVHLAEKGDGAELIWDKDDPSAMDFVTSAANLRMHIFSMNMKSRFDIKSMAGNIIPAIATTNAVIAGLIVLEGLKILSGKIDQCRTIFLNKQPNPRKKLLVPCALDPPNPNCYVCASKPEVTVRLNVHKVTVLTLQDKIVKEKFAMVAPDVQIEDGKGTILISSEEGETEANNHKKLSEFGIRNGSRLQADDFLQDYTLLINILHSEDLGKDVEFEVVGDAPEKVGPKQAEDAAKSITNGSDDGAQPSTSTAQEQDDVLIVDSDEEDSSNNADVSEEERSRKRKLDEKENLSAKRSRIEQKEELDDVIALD
Chain of Serine/threonine-protein kinase N2 (Q16513 whole entry): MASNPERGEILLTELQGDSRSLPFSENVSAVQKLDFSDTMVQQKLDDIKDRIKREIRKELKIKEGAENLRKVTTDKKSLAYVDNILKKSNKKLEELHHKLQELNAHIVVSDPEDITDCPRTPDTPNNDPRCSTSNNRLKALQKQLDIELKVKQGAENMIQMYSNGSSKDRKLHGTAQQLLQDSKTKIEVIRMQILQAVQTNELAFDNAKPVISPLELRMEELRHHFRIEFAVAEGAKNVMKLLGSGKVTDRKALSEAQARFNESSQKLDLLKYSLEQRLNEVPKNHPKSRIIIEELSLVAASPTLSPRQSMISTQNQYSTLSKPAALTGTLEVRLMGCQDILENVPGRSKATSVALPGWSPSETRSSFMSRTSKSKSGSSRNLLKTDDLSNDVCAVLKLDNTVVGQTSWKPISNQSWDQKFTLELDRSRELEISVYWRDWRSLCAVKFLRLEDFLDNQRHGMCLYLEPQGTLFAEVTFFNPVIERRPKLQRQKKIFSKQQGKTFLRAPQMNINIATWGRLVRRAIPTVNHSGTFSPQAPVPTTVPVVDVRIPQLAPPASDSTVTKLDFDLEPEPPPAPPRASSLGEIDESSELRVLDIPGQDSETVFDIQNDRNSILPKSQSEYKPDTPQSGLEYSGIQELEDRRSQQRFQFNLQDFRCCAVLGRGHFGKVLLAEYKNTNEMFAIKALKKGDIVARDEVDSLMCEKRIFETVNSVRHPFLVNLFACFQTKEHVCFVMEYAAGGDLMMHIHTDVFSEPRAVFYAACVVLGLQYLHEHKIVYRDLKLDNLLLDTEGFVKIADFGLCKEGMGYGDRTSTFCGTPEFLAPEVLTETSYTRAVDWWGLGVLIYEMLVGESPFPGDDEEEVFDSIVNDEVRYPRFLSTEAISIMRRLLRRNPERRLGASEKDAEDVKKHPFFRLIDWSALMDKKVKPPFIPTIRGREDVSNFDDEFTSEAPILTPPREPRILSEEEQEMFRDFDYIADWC
Chain of Intestinal-type alkaline phosphatase (P24822 whole entry): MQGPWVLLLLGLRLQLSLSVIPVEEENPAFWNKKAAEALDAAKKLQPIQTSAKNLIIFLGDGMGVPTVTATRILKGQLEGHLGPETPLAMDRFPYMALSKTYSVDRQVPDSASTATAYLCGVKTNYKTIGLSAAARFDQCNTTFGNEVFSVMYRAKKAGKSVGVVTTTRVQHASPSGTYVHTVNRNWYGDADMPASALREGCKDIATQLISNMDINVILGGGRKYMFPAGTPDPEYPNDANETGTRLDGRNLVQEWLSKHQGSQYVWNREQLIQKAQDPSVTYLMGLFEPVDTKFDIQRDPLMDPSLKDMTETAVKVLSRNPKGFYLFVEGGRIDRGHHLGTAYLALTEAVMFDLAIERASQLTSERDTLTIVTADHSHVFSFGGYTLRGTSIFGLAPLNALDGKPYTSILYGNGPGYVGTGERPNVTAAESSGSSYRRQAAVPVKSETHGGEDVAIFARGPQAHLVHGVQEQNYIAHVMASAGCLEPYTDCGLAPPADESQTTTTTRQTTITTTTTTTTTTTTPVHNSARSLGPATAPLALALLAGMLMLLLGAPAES
Chain of cAMP-dependent protein kinase catalytic subunit PRKX (P51817 whole entry): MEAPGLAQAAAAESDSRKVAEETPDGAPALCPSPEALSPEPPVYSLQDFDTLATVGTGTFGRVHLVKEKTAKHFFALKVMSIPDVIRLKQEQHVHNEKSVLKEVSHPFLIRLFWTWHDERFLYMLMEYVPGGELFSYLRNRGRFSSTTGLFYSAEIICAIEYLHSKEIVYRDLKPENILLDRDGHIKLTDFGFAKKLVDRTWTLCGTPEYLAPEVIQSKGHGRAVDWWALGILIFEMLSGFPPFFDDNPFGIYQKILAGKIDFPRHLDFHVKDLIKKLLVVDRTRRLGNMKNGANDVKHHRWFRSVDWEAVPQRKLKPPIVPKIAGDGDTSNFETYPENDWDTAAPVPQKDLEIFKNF
Chain of Glutathione-S-transferase (Q26513 whole entry): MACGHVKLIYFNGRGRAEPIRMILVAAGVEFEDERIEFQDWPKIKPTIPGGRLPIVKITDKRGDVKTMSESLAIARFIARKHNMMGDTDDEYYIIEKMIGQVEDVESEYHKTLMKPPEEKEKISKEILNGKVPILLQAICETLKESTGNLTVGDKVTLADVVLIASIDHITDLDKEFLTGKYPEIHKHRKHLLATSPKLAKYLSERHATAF

With `O=C1N=C(NS(=O)(=O)Cc2ccccc2)S/C1=C1\C(=O)Nc2ccccc21`, the IC50 in [1] was 51.6 µM (active).

Regarding `O=C1C=C(N2CCCCC2)c2ccccc2C1=O`, the EC50 in [2] is 17.8 µM (active).

Turning to `CC(=O)NC1C(=O)N(CCN2CCOCC2)c2ccc(F)cc21` (centres undefined), the IC50 in [3] was 12.3 µM (active).

Consider `O=C(CCc1ccccc1)NNc1cc(N2CCCCC2)nc(N2CCCCC2)n1`, for which the EC50 in [4] was 3.74 µM (active).

For the compound `Oc1ccc(N=Nc2c(O)ccc3ccccc23)cc1`, the results for the IC50 in [5], in experiment [7] and in [8] were 17.4 µM (active), > 118 µM (inactive) and 16.5 µM (active), respectively. Moreover, the AC50 in experiment [6] is 2.38 µM (active); in experiment [9], 5.61 µM (active).

Regarding `O=C(O)C1Nc2c(O)cc(Cl)c([N+](=O)[O-])c2C2C=CCC12` (centres undefined), the IC50 in experiment [10] was 37.8 µM (active); in experiment [11], 175 µM (active); in experiment [12], 22.4 µM (active); in experiment [13] it was > 100 µM (active).

`Cc1n[nH]c2ccc(-c3cncc(OCC(N)Cc4cccc(Cl)c4)c3)cc12` (centres undefined): the Ki in experiment [14] was 1.26 µM (active); in experiment [15], > 3.98 µM (inactive); in [16], > 2 µM (inactive); in experiment [17], 0.126 µM (active); in experiment [18], > 1.58 µM (inactive); in experiment [19], 0.0158 µM (active). Also, the Ki is 0.00501 µM (active) in experiment [20]; > 3.16 µM (inactive) in [21]; 0.001 µM (active) in [22]; 0.2 µM (active) in [23]; 3.16 µM (active) in experiment [24]; > 10 µM (inactive) in [25]. For the same compound, the Ki was > 7.94 µM (inactive) in [26], 0.0631 µM (active) in experiment [27] and 2.51 µM (active) in experiment [28]. In addition, the pKi in experiment [27] amounted to 7.2.
